From US20250387381A1, “COMPOSITIONS AND METHODS FOR ENHANCED DRUG LOADING OF LONG-ACTING IN SITU FORMING IMPLANTS AND USES THEREOF” (The University of North Carolina at Chapel Hill, priority 2022, published 2025)
Converted amounts (≈) assume the structure as drawn.

Columns and labels:
[1] = Stability of LA-RFB formulations stored at room temperature in the dark; type: physicochemical; conditions: solution of RFB in DMSO without polymer, same storage
Method: At predetermined time points (3, 4, 6, 9, 12, 15 months of incubation) 10 μL of formulation was diluted in 1 mL of DMSO, then further diluted at 1:1000 in DMSO for analysis by UV-vis absorbance spectrometer and HPLC to measure the drug concentration and drug degradation. As a control, RFB dissolved in DMSO (20 μg mL^−1 RFB solution) was incubated in the dark at RT.

[2] = system: Mtb; conditions: cited from earlier work
[3] = human, in vivo, po, 150 mg; cited from earlier work
[4] = RFB saturated solubility in DMSO and NMP with or without amphiphilic additives; conditions: for solubility at 1 day: organic solvent or mixture, thermodynamic from solid

CO[C@H]1/C=C/O[C@@]2(C)Oc3c(C)c(O)c4c(c3C2=O)C2=NC3(CCN(CC(C)C)CC3)NC2=C(NC(=O)/C(C)=C\C=C\[C@H](C)[C@H](O)[C@@H](C)[C@@H](O)[C@@H](C)[C@H](OC(C)=O)[C@@H]1C)C4=O [RFB, Rifabutin]
Residual RFB after 3 months [1]: 67%
Residual RFB after 4 months [1]: 53%
Residual RFB after 6 months [1]: 25%
RFB MIC [2]: 0.064 µg/mL
Cmax [3]: 460 ng/mL
Highest RFB solubility in DMSO with Kolliphor HS 15 ([4]; 0.45% Kolliphor HS 15): 564±7 mg RFB per mL of DMSO
solubility at 1 day ([4]; Highest RFB solubility in NMP with Kolliphor HS 15, 8.8% Kolliphor HS 15): 702 ± 10 mg/mL (≈ 829 mM)
solubility at 1 day ([4]; RFB maximum solubility in DMSO, DMSO alone, room temperature, mean±SD): 202 ± 22 mg/mL (≈ 238 mM)
solubility at 1 day ([4]; RFB maximum solubility in NMP, NMP without additive, room temperature, mean±SD): 148 ± 34 mg/mL (≈ 175 mM)
